SMILES strings stand for the structures. pIC50: −log10 of the molar value.

In one experiment the target is T1, human EphB4 receptor (Homo sapiens, UniProt P54760).
T1 construct: made in house; host or cells: Sf9 or Sf21 (baculovirus)
T1 sequence (P54760 566-987): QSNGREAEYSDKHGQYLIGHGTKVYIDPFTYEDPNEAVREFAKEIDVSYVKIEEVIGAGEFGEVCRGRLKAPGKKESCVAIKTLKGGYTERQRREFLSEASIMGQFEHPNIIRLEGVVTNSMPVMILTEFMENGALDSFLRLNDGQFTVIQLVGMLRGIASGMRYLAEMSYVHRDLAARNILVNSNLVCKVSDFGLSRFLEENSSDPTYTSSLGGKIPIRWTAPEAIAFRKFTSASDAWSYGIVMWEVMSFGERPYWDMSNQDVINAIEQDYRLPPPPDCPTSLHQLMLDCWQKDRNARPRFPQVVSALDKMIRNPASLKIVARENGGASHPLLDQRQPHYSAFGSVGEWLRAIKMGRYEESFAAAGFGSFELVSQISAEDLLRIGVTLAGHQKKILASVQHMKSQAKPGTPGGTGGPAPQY
The experiment in a line: EphB4 kinase assay, GST-EphB, 33P incorporation into poly(Glu,Tyr). The experiment is classed as biochemical. The conditions noted are these: Table 4; read-out: EphB4, activity (IC50 for kinase inhibition). An excerpt: EphB4: Production and measure of enzymatic activity: Generation of Bac-to-Bac™ (Initrogen Life Technologies, Basel, Switzerland) GST-fusion expression vectors: Entire cytoplasmatic coding regions of the EphB-class are amplified by PCR from cDNA libraries derived from human placenta or brain, respectively. Recombinant baculovirus are generated that express the amino acid region 566-987 of the human EphB4 receptor (SwissProt Database, Accession No. P54760). GST sequence is cloned into pFastBac1® vector (Invitrogen Life Technologies, Basel, Switzerland) and PCR amplified. cDNAs encoding EphB4-receptor domains, respectively, are cloned in frame 3′prime to the GST sequence into this modified FastBac1 vector to generate pBac-to-Bac™ donor vectors. Single colonies arising from the transformation are inoculated to give overnight cultures for small scale plasmid preparation. […] By automated sequencing the inserts and approximately 50 bp of the flanking vector sequences are confirmed on both strands. Production of viruses: Viruses for each of the kinases are made according to the protocol supplied by GIBCO if not stated otherwise. In brief, transfer vectors containing the kinase domains are transfected into the DH10Bac cell line (GIBCO) and plated on selective agar plates. Colonies without insertion of the fusion sequence into the viral genome (carried by the bacteria) are blue. Single white colonies are picked and viral DNA (bacmid) isolated from the bacteria by standard plasmid purification procedures. Sf9 cells or Sf21 cells are then transfected in 25 cm2 flasks with the viral DNA using Cellfectin reagent according to the protocol. Purification of GST-tagged kinases: The centrifuged cell lysate is loaded onto a 2 mL glutathione-sepharose column (Pharmacia) and washed three times with 10 mL of 25 mM Tris-HCl, pH 7.5, 2 mM EDTA, 1 mM DTT, 200 mM NaCl. The GST-tagged proteins are then eluted by 10 applications (1 mL each) of 25 mM Tris-HCl, pH 7.5, 10 mM reduced-glutathione, 100 mM NaCl, 1 mM DTT, 10% Glycerol and stored at −70° C. Protein kinase assays: The activities of protein kinases are assayed in the presence or absence of inhibitors, by measuring the incorporation of 33P from [γ33P]ATP into a polymer of glutamic acid and tyrosine (poly(Glu,Tyr)) as a substrate. The kinase assays with purified GST-EphB (30 ng) are carried out for 15-30 min at ambient temperature in a final volume of 30 μL containing 20 mM Tris.HCl, pH 7.5, 10 mM MgCl2, 3-50 mM MnCl2, 0.01 mM Na3VO4, 1% DMSO, 1 mM DTT, 3 μg/mL poly(Glu,Tyr) 4:1 (Sigma; St. Louis, Mo., USA) and 2.0-3.0 μM ATP (γ-[33P]-ATP 0.1 μCi). The assay is terminated by the addition of 20 μL of 125 mM EDTA. Subsequently, 40 μl of the reaction mixture are transferred onto Immobilon-PVDF membrane (Millipore, Bedford, Mass., USA) previously soaked for 5 min with methanol, rinsed with water, then soaked for 5 min with 0.5% H3PO4 and mounted on vacuum manifold with disconnected vacuum source. After spotting all samples, vacuum is connected and each well rinsed with 200 μl 0.5% H3PO4. Membranes are removed and washed 4× on a shaker with 1.0% H3PO4, once with ethanol. Membranes are counted after drying at ambient temperature, mounting in Packard TopCount96-well frame, and addition of 10 μL/well of Microscint™ (Packard). IC50 values are calculated by linear regression analysis of the percentage inhibition of each compound in duplicate, at four concentrations (usually 0.01, 0.1, 1 and 10 μM). One unit of protein kinase activity is defined as 1 nmole of 33P ATP transferred from [γ33P] ATP to the substrate protein per minute per mg of protein at 37° C. Compounds of formula I show EphB4 inhibition down to 10 nM, preferably IC50 values between 0.01-1.0 μM.
Take `COc1cccc(-c2cnn3c(N)c(-c4cccc(O)c4)cnc23)c1` [Example 60, 3-[7-Amino-3-(3-methoxy-phenyl)-pyrazolo[1,5-a]pyrimidin-6-yl]-phenol]: the negative-log IC50 (pIC50) (usually the IC50 on a negative log10 scale, so that one unit is a factor of ten) was more than 5.00. On to `CN1CCN(c2ccc(-c3cnn4c(N)c(-c5cccc(O)c5)cnc34)cc2)CC1` [Example 1, 3-{7-Amino-3-[4-(4-methyl-piperazin-1-yl)-phenyl]-pyrazolo[1,5-a]pyrimidin-6-yl}-phenol], for which the pIC50 was more than 5.00.

As to `COc1ccccc1-c1cnn2c(N)c(-c3cccc(O)c3)cnc12` [Example 48, 3-[7-Amino-3-(2-methoxy-phenyl)-pyrazolo[1,5-a]pyrimidin-6-yl]-phenol], the pIC50 was more than 5.00.

Still in this experiment, the particulars now being: Table 5; read-out: EphB4, IC50 class.
On to `Cc1nc2c(-c3cccc(N4CC[N+](C)([O-])CC4)c3)cnn2c(N)c1-c1ccc(F)cc1` [Example 106, 6-(4-Fluoro-phenyl)-5-methyl-3-[3-(4-methyl-4-oxy-piperazin-1-yl)-phenyl]-pyrazolo[1,5-a]pyrimidin-7-ylamine], for which the pIC50 was more than 6.00.

For `CN1CCN(c2cccc(-c3cnn4c(N)c(Cc5cccc(Br)c5)cnc34)c2)CC1` [Example 85, 6-(3-Bromo-benzyl)-3-[3-(4-methyl-piperazin-1-yl)-phenyl]pyrazolo[1,5-a]pyrimidin-7-ylamine], the pIC50 was 5.00 to 6.00.

`Cc1nc2c(-c3ccc(N4CCN(C)CC4)cc3)cnn2c(N)c1-c1ccc(F)c(Cl)c1` [Example 83, 6-(3-Chloro-4-fluoro-phenyl)-5-methyl-3-[4-(4-methyl-piperazin-1-yl)-phenyl]-pyrazolo[1,5-a]pyrimidin-7-ylamine]: the negative logarithm of the IC50 (pIC50) was more than 6.00. The same measure, in the same setting: then `COc1ccc(-c2cnn3c(N)c(-c4cccc(Cl)c4)c(CF)nc23)cc1OC` [Example 92, 6-(3-Chloro-phenyl)-3-(3,4-dimethoxy-phenyl)-5-fluoromethyl-pyrazolo[1,5-a]pyrimidin-7-ylamine], with more than 6.00; and `Cc1nc2c(-c3cccc(N4CCN(CCO)CC4)c3)cnn2c(N)c1-c1ccc(F)c(Cl)c1` [Example 100, 2-(4-{3-[7-Amino-6-(3-chloro-4-fluoro-phenyl)-5-methyl-pyrazolo[1,5-a]pyrimidin-3-yl]-phenyl}-piperazin-1-yl)-ethanol], with more than 6.00; and `Cc1nc2c(-c3ccc(N4CCN(C)CC4)cc3)cnn2c(N)c1-c1ccc(F)cc1` [Example 79, 6-(4-Fluoro-phenyl)-5-methyl-3-[4-(4-methyl-piperazin-1-yl)-phenyl]-pyrazolo[1,5-a]pyrimidin-7-ylamine], with more than 6.00.

In the case of `Cc1nc2c(-c3cccc(N4C[C@@H](C)O[C@@H](C)C4)c3)cnn2c(N)c1-c1cccc(Cl)c1` [Example 89, 6-(3-Chloro-phenyl)-3-[3-((2R,6S)-2,6-dimethyl-morpholin-4-yl)-phenyl]-5-methyl-pyrazolo[1,5-a]pyrimidin-7-ylamine], the pIC50 is more than 6.00. `Cc1nc2c(-c3cccc(N4CCN(CCO)CC4)c3)cnn2c(N)c1-c1cccc(Cl)c1` [Example 90, 2-(4-{3-[7-Amino-6-(3-chloro-phenyl)-5-methyl-pyrazolo[1,5-a]pyrimidin-3-yl]-phenyl}-piperazin-1-yl)-ethanol]: the negative logarithm of the IC50 (pIC50) was more than 6.00. For `Cc1nc2c(-c3cccc(N4CCN(CCO)CC4)c3)cnn2c(N)c1-c1ccc(F)cc1` [Example 97, 2-(4-{3-[7-Amino-6-(4-fluoro-phenyl)-5-methyl-pyrazolo[1,5-a]pyrimidin-3-yl]-phenyl}-piperazin-1-yl)-ethanol], the pIC50 was more than 6.00. Consider `CN1CCN(c2cccc(-c3cnn4c(N)c(-c5ccccc5Cl)cnc34)c2)CC1` [Example 78, 6-(2-Chloro-phenyl)-3-[3-(4-methyl-piperazin-1-yl)-phenyl]-pyrazolo[1,5-a]pyrimidin-7-ylamine], for which the pIC50 is more than 6.00. Consider `COc1ccc(-c2cnn3c(N)c(-c4ccc(F)c(F)c4)c(C)nc23)cc1OC` [Example 99, 6-(3,4-Difluoro-phenyl)-3-(3,4-dimethoxy-phenyl)-5-methyl-pyrazolo[1,5-a]pyrimidin-7-ylamine], for which the negative-log IC50 (pIC50) was more than 6.00.

As for `COc1ccc(-c2cnn3c(N)c(-c4cccc(Cl)c4)c(C)nc23)cc1` [Example 88, 6-(3-Chloro-phenyl)-3-(4-methoxy-phenyl)-5-methyl-pyrazolo[1,5-a]pyrimidin-7-ylamine], the pIC50 was more than 6.00. On to `Cc1nc2c(-c3cccc(N4CCN(C5CCN(C)CC5)CC4)c3)cnn2c(N)c1-c1cccc(Cl)c1` [Example 81, 6-(3-Chloro-phenyl)-5-methyl-3-{3-[4-(1-methyl-piperidin-4-yl)-piperazin-1-yl]-phenyl}-pyrazolo[1,5-a]pyrimidin-7-ylamine], for which the negative-log IC50 (pIC50) is more than 6.00. In the case of `Cc1nc2c(-c3cccc([N+]4([O-])CC[N+](C)([O-])CC4)c3)cnn2c(N)c1-c1ccc(F)cc1` (centres unmarked) [Example 107, 6-(4-Fluoro-phenyl)-5-methyl-3-[3-(4-methyl-1,4-dioxy-piperazin-1-yl)-phenyl]-pyrazolo[1,5-a]pyrimidin-7-ylamine], the pIC50 was more than 6.00. Same read-out and setting: next, `CN1CCN(c2ccc(-c3cnn4c(N)c(-c5ccccc5Cl)cnc34)cc2)CC1` [Example 77, 6-(2-Chloro-phenyl)-3-[4-(4-methyl-piperazin-1-yl)-phenyl]-pyrazolo[1,5-a]pyrimidin-7-ylamine]: more than 6.00.

Consider `COc1ccc(-c2cnn3c(N)c(-c4ccc(F)cc4)c(C)nc23)cc1` [Example 96, 6-(4-Fluoro-phenyl)-3-(4-methoxy-phenyl)-5-methyl-pyrazolo[1,5-a]pyrimidin-7-ylamine], for which the negative logarithm of the IC50 (pIC50) was more than 6.00. Consider `COc1cc(N2CCN(C)CC2)ccc1-c1cnn2c(N)c(-c3cccc(Cl)c3)c(C)nc12` [Example 75, 6-(3-Chloro-phenyl)-3-[2-methoxy-4-(4-methyl-piperazin-1-yl)-phenyl]-5-methyl-pyrazolo[1,5-a]pyrimidin-7-ylamine], for which the pIC50 is more than 6.00.

Turning to `Cc1nc2c(-c3cccc(N4CCC(N5CCCC5)CC4)c3)cnn2c(N)c1-c1cccc(Cl)c1` [Example 102, 6-(3-Chloro-phenyl)-5-methyl-3-[3-(4-pyrrolidin-1-yl-piperidin-1-yl)-phenyl]-pyrazolo[1,5-a]pyrimidin-7-ylamine], the pIC50 is more than 6.00. For `Cc1nc2c(-c3cccc(N4CCN(C)CC4)c3)cnn2c(N)c1-c1ccc(F)c(Cl)c1` [Example 82, 6-(3-Chloro-4-fluoro-phenyl)-5-methyl-3-[3-(4-methyl-piperazin-1-yl)-phenyl]pyrazolo[1,5-a]pyrimidin-7-ylamine], the pIC50 is more than 6.00. Consider `CN1CCN(c2cccc(-c3cnn4c(N)c(Cc5ccccc5)cnc34)c2)CC1` [Example 91, 6-Benzyl-3-[3-(4-methyl-piperazin-1-yl)-phenyl]-pyrazolo[1,5-a]pyrimidin-7-ylamine], for which the pIC50 was more than 6.00.

These data come from patent US20090099167A1, “Organic compounds” (Novartis Institutes for Biomedical Research, priority 2004, published 2009).
